Laboratory results reported in patent US8399512B2, “Biocompatible biodegradable fumagillin analog conjugates” (Mersana Therapeutics, Inc., priority 2007, dated 2013).

Assays:
[1] = tested on: human umbilical vein endothelial cells (HUVECs); experiment: Inhibitory effect on HUVEC cell growth (MTS/PES colorimetry); type: cell-based; settings: Homo sapiens, 120 h, cultured 5 days, MTS/PES absorbance 490 nm
Procedure: Using human umbilical vein endothelial cells (HUVECs), the effect of the fumagillin analog conjugates and the fumagillin analogs on cell growth was evaluated.
The HUVECs were added to M199 medium supplemented with 20% FBS, after which the cells were incubated at 37° C. under 5% CO2. 96-well plates were seeded at 5,000 cells/well in a total volume of 100 μL. The cells were left overnight to attach to the plate. Cells were subcultured a maximum of 15 times before being discarded.
To evaluate the inhibitory activity of the fumagillin conjugate or the fumagillin analog alone on the growth of HUVEC cells, the conjugate or fumagillin analog was dissolved in the required amount of 0.9% saline, vortexed briefly to wet and disperse the solids, followed by vortexing for a total of 30 min. […] The cells were treated with the conjugate solution or fumagillin analog solution at various concentrations ranging from 30 nM to 0.01 nM, and cultured for 5 days at 37° C.
Colorimetry was performed to determine the extent of cell growth by adding 20 μL of MTS/PES reagent to each well, incubation for 4 h at 37° C. followed by measuring the absorbance at 490 nm.

B16F10 tumor cells [2] = experiment: Tumor growth delay in B16F10 mouse melanoma; type: in vivo; settings: IV, q3d × 4, BDF1 mice
Procedure: BDF1 female mice (N=6) with 1×10^6 B16F10 tumor cells positioned subcutaneous in the flank were treated with various fumagillin conjugates of the invention. Tumor growth was monitored in parallel with positive and negative controls of cyclophosphamide and saline respectively. Treatment began when tumors reached an average size of 80-120 mg and tumor volumes were measured two times per week until animals reached an endpoint tumor volume of 2 grams or 45 days, whichever came first. Conjugates were administered as solutions in saline intravenously at dose levels of 30-100 mg/kg (expressed as fumagillin analog equivalents) on a schedule of q3dx4. Treatment outcomes were assessed in terms of percent tumor growth delay (% TGD), (see FIG. 1) defined as the percent increase in median time to endpoint for mice treated with an agent compared to those treated with saline.

human MetAP-2 enzyme = human MetAP-2 enzyme (Homo sapiens, UniProt P50579); experiment: MetAP-2 inhibition (release of AMC from Met-Gly-Pro-AMC); type: biochemical
Sequence of human MetAP-2 enzyme (P50579 whole entry): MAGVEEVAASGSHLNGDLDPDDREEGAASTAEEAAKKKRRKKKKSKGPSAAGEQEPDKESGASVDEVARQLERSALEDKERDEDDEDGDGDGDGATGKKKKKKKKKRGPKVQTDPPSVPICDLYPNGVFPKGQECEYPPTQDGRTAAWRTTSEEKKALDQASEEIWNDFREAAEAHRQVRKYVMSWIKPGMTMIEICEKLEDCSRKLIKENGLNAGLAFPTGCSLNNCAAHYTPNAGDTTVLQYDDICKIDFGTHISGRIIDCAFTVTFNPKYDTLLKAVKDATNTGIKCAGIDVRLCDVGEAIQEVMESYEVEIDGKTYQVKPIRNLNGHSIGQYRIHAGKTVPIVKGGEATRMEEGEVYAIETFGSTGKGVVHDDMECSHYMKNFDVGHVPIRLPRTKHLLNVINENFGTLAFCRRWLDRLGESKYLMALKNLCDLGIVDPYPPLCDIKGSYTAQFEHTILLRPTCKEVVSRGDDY
Procedure: The test samples were evaluated for their ability to inhibit human MetAP-2 enzyme. The compounds were added at varying concentrations to human MetAP-2 enzyme (6 nM) in a buffered medium containing 20 mM Hepes, pH 7.4, 100 mM KCl, 0.1 mM Co(II), 10% glycerol, 5 mg/ml of L-Amino acid oxidase, 10 mg/ml of peroxidase, 10 mg/ml of o-dianisidine, and 2 mM of Met-Ser-Ala at 37° C. After 10 minutes incubation the reaction is started by adding the substrate Met-Gly-Pro-AMC to 2 mM and the release of AMC is measured with a Decan Plate reader (Excitation at 345 nm, emission at 445 nm). The kinetic data is recorded at 30 sec intervals for 30 min. Table 1 lists some of the conjugates and compounds tested along with their approximate IC50 values for inhibiting Met-AP2.

B16F10 tumor cells [3] = experiment: Tumor growth delay in B16F10 mouse melanoma; type: in vivo; settings: 80 mg/kg fumagillin analog equiv., IV, qod × 4, BDF1 mice
[4] = Open field activity levels in mice; type: in vivo, mouse; settings: C57B1/6 mice, 50-100 mg/kg for four weeks; conjugates IV, TNP-470 subcutaneously; versus saline
Procedure: C57B1/6 female mice (N=8) were housed until they reached 11 weeks of age. Animals were then regularly administered with fumagillin conjugates or TNP-470 and their activity levels monitored in an open field arena. Activity levels were assessed with saline as a control. Conjugates were administered as solutions in saline intravenously at dose levels of 50-100 mg/kg (expressed as fumagillin-analog equivalents) and TNP-470 was administered subcutaneously at dose levels of 50-100 mg/kg. Dosing was performed for four weeks on schedules ranging from q2d to once weekly, and activity levels were observed four times throughout the study: (1) prior to compound administration, (2) after one week of dosing, (3) after two weeks of dosing, and (4) following the final week of dosing. Animals were placed in the open field arena for 10 minutes per trial and their activity monitored in terms of travel distance, peripheral squares crossed, center squares crossed, and rearing events.

[5] = 80 mg/kg fumagillin analog equiv.
[6] = 60 mg/kg fumagillin analog equiv.
[7] = 65 mg/kg fumagillin analog equiv.

| SMILES | IC50 [1] [µM] | % TGD (B16F10 tumor cells [2]; [5]) | further results |
| --- | --- | --- | --- |
| CO[C@H]1[C@H](C2(C)O[C@@H]2CC=C(C)C)[C@]2(CC[C@H]1OC(=O)N[C@@H](C)c1ccccc1)CO2 (stereo partly drawn) [Compound 6] | < 0.025 | 5-20% |  |
| CO[C@H]1[C@H](C2(C)O[C@@H]2CC=C(C)C)[C@]2(CC[C@H]1OC(=O)N1CCN(CCO)CC1)CO2 (stereo partly drawn) [Compound 7] | < 0.025 | 5-20% |  |
| CO[C@H]1[C@H](C2(C)O[C@@H]2CC=C(C)C)[C@]2(CC[C@H]1OC(=O)NCc1ccc(N)cc1)CO2 (stereo partly drawn) [Compound 8] | < 0.025 |  | IC50 (human MetAP-2 enzyme): < 0.01 µM |
| CCN1CCN(C(=O)O[C@@H]2CC[C@]3(CO3)[C@@H](C3(C)O[C@@H]3CC=C(C)C)[C@@H]2OC)CC1 (stereo partly drawn) [Compound 9] | < 0.025 |  | % TGD (B16F10 tumor cells [2]; 100 mg/kg fumagillin analog equiv.): 20-50% |
| CO[C@H]1[C@H](C2(C)O[C@@H]2CC=C(C)C)[C@]2(CC[C@H]1OC(=O)N1CCN(C(C)=O)CC1)CO2 (stereo partly drawn) [Compound 10] | < 0.025 |  | % TGD (B16F10 tumor cells [2]; [6]): 20-50% |
| CO[C@H]1[C@H](C2(C)O[C@@H]2CC=C(C)C)[C@]2(CC[C@H]1OC(=O)NCCc1ccc(N)cc1)CO2 (stereo partly drawn) [Compound 11] | < 0.025 |  | % TGD (B16F10 tumor cells [2]; [7]): 20-50% |
| CO[C@H]1[C@H](C2(C)O[C@@H]2CC=C(C)C)[C@]2(CC[C@H]1OC(=O)N[C@H](C)c1ccccc1)CO2 (stereo partly drawn) [Compound 12] | < 0.025 | 5-20% |  |
| CO[C@H]1[C@H](C2(C)O[C@@H]2CC=C(C)C)[C@]2(CC[C@H]1OC(=O)/C=C/c1ccccc1)CO2 (stereo partly drawn) [Compound 13] | > 0.03 | 5-20% |  |
| CO[C@H]1[C@H](C2(C)O[C@@H]2CC=C(C)C)[C@]2(CC[C@H]1OC(=O)C(=O)N(C)OC)CO2 (stereo partly drawn) [Compound 15] | > 0.03 | >50% |  |
| COC(=O)C(=O)O[C@@H]1CC[C@]2(CO2)[C@@H](C2(C)O[C@@H]2CC=C(C)C)[C@@H]1OC (stereo partly drawn) [Compound 16] | > 0.03 | 20-50% |  |
| CO[C@H]1[C@H](C2(C)O[C@@H]2CC=C(C)C)[C@]2(CC[C@H]1OC(=O)NCCc1ccc(NC(C)=O)cc1)CO2 (stereo partly drawn) [Compound 18] | < 0.025 | 5-20% |  |
| CO[C@H]1[C@H](C2(C)O[C@@H]2CC=C(C)C)[C@]2(CC[C@H]1NC(=O)c1ccc([N+](=O)[O-])cc1)CO2 (stereo partly drawn) [Compound 19] | < 0.025 |  | % TGD (B16F10 tumor cells [2]; 40 mg/kg fumagillin analog equiv.): 20-50% |
| CCOC(=O)CCN1CCN(C(=O)O[C@@H]2CC[C@]3(CO3)[C@@H](C3(C)O[C@@H]3CC=C(C)C)[C@@H]2OC)CC1 (stereo partly drawn) [Compound 22] | < 0.025 |  | % TGD (B16F10 tumor cells [2]; 30 mg/kg fumagillin analog equiv.): 5-20% |
| COc1ccc2c(ccn2C(=O)O[C@@H]2CC[C@]3(CO3)[C@@H](C3(C)O[C@@H]3CC=C(C)C)[C@@H]2OC)c1 (stereo partly drawn) [Compound 23] | < 0.025 | 5-20% |  |
| CO[C@@H]1[C@H](O)CC[C@]2(CO2)[C@H]1C1(C)O[C@@H]1CC=C(C)C (stereo partly drawn) [Compound 25] | > 0.03 | 20-50% |  |
| CO[C@H]1[C@H](C2(C)O[C@@H]2CC=C(C)C)[C@]2(CC[C@H]1OC(=O)N1CC3CC1CN3)CO2 (stereo partly drawn) [Compound 26] | < 0.025 |  | % TGD (B16F10 tumor cells [2]; [6]): 5-20% |
| COC1=CCC[C@]2(CO2)[C@H]1C1(C)O[C@@H]1CC=C(C)C (stereo partly drawn) [Compound 27] | < 0.025 |  | % TGD (B16F10 tumor cells [2]; 50 mg/kg fumagillin analog equiv.): 5-20% |
| CO[C@H]1[C@H](C2(C)O[C@@H]2CC=C(C)C)[C@]2(CC[C@H]1OC(=O)NC(=O)CSCCNC(=O)C1CCCN1C(=O)OCC1c3ccccc3-c3ccccc31)CO2 (stereo partly drawn) [Compound 31] | < 0.025 | 20-50% |  |

| SMILES | IC50 [1] [µM] | % TGD (B16F10 tumor cells [2]; [5]) | further results |
| --- | --- | --- | --- |
| COc1ccc2[nH]cc(CCC(=O)O[C@@H]3CC[C@]4(CO4)[C@@H](C4(C)O[C@@H]4CC=C(C)C)[C@@H]3OC)c2c1 (stereo partly drawn) [Compound 32] | < 0.025 | 20-50% |  |
| CO[C@H]1[C@H](C2(C)O[C@@H]2CC=C(C)C)[C@]2(CC[C@H]1OC(=O)C1CCC(CNC(=O)OCC3c4ccccc4-c4ccccc43)CC1)CO2 (stereo partly drawn) [Compound 33] | > 0.03 |  | % TGD (B16F10 tumor cells [2]; [7]): 5-20% |
| CO[C@H]1[C@H](C2(C)O[C@@H]2CC=C(C)C)[C@]2(CC[C@H]1OC(=O)NC(=O)CSc1cccc(N)c1)CO2 (stereo partly drawn) [Compound 35] | < 0.025 | 20-50% |  |
| CO[C@H]1[C@H](C2(C)O[C@@H]2CC=C(C)C)[C@]2(CC[C@H]1NC(=O)C13CCC(C(=O)NCCCO)(CC1)CC3)CO2 (stereo partly drawn) [Compound 38] | 0.025 to 0.1 | 5-20% |  |
| CO[C@@H]1[C@H](NC(=O)NC(=O)CSc2ccc(N)cc2)CC[C@]2(CO2)[C@H]1[C@@]1(C)O[C@@H]1CC=C(C)C [Compound 39] | < 0.025 |  | IC50 (human MetAP-2 enzyme): < 0.01 µM |
| CO[C@H]1[C@H](C2(C)O[C@@H]2CC=C(C)C)[C@]2(CC[C@H]1NC(=O)C13CCC(C(=O)O)(CC1)CC3)CO2 (stereo partly drawn) [Compound 40] | 0.025 to 0.1 |  | % TGD (B16F10 tumor cells [3]): 20-50% |
| CO[C@H]1[C@H](C2(C)O[C@@H]2CC=C(C)C)[C@]2(CC[C@H]1NC(=O)CCl)CO2 (stereo partly drawn) [Compound 44] | < 0.025 | 5-20% |  |
| CO[C@H]1[C@H](C2(C)O[C@@H]2CC=C(C)C)[C@]2(CC[C@H]1NC(=O)C13CCC(C(=O)NCCCOC(=O)[C@@H]4CCCN4)(CC1)CC3)CO2 (stereo partly drawn) [Compound 49] | 0.1 to 0.3 |  |  |
| CO[C@H]1[C@H](C2(C)O[C@@H]2CC=C(C)C)[C@]2(CC[C@H]1OC(=O)NCc1ccc(NC(=O)[C@H](C)N)cc1)CO2 (stereo partly drawn) [Compound 50] | < 0.025 |  |  |
| CO[C@H]1[C@H](C2(C)O[C@@H]2CC=C(C)C)[C@]2(CC[C@H]1OC(=O)NCCc1ccc(NC(=O)[C@H](C)N)cc1)CO2 (stereo partly drawn) [Compound 51] | < 0.025 |  | IC50 (human MetAP-2 enzyme): < 0.01 µM |
| CO[C@H]1[C@H](C2(C)O[C@@H]2CC=C(C)C)[C@]2(CC[C@H]1OC(=O)NC(=O)CSc1cccc(NC(=O)CCC(=O)O)c1)CO2 (stereo partly drawn) [Compound 52] | < 0.025 |  |  |
| CO[C@H]1[C@H](C2(C)O[C@@H]2CC=C(C)C)[C@]2(CC[C@H]1NC(=O)N1CCN(CCO)CC1)CO2 (stereo partly drawn) [Compound 53] | 0.025 to 0.1 |  |  |
| CO[C@H]1[C@H](C2(C)O[C@@H]2CC=C(C)C)[C@]2(CC[C@H]1OC(=O)N1CCN(CCOC(=O)CCC(=O)O)CC1)CO2 (stereo partly drawn) [Compound 54] | < 0.025 |  |  |
| CO[C@H]1[C@H](C2(C)O[C@@H]2CC=C(C)C)[C@]2(CC[C@H]1OC(=O)N1CCN(CCOC(=O)C3CCCN3C(=O)OCC3c4ccccc4-c4ccccc43)CC1)CO2 (stereo partly drawn) [Compound 55] | < 0.025 |  |  |
| CO[C@H]1[C@H](C2(C)O[C@@H]2CC=C(C)C)[C@]2(CC[C@H]1OC(=O)N1CCN(C(=O)[C@H](C)N)CC1)CO2 (stereo partly drawn) [Compound 56] | < 0.025 |  |  |
| CO[C@H]1[C@H](C2(C)O[C@@H]2CC=C(C)C)[C@]2(CC[C@H]1NC(=O)NCCc1ccc(N)cc1)CO2 (stereo partly drawn) [Compound 57] | < 0.025 |  |  |
| CO[C@H]1C([C@@]2(C)O[C@@H]2CC=C(C)C)[C@]2(CC[C@H]1OC(=O)N[C@@H](C(N)=O)C(C)C)CO2 (stereo partly drawn) [PPI-2458, reference compound] |  |  | IC50 (human MetAP-2 enzyme): < 0.01 µM |
| CO[C@H]1C([C@@]2(C)O[C@@H]2CC=C(C)C)[C@]2(CC[C@H]1OC(=O)NC(=O)CCl)CO2 (stereo partly drawn) [TNP-470, reference compound] |  |  | IC50 (human MetAP-2 enzyme): < 0.01 µM; rearing-event activity levels [4]: increased rearing-event activity levels |
